Consider two compounds from patent US4347319A, “Microbiological epoxidation process” (priority 1980, dated 1982).

Structures are written as SMILES.

For test [1], the system named is methane-grown methylotrophic microorganisms. The test is described as follows: Epoxidation by methane-grown cells of the strains of the invention. It counts as cell-based. The protocol: The pH of the nutrient medium was adjusted to 7.0 by the addition of acid or base and 50 ml samples of the nutrient medium were charged into a plurality of 300 ml shaker flasks. The shaker flasks were inoculated with an inoculating loop of cells from an agar plate containing homogeneous colonies of the microorganisms on the plate (the purity of the isolates was confirmed by microscopic examination. The isolates had been maintained on agar plates under an atmosphere of methane and air having a 1:1 v/v gas ratio which had been transferred evey two weeks. The gaseous phase of the inoculated flasks was then replaced with a gas mixture comprised of methane and air having a ratio of 1:1 on a v/v basis. The inoculated flasks were sealed air tight and were incubated on a rotary shaker of orbital radius 2.5 cm at 250 rpm and at 30° C. for two days until turbidity in the medium had developed.
The cells were harvested by centrifugation at 10,000×g. at 4° C. for 30 minutes. The cell pellet was washed twice with a 0.15 M phosphate buffer at a pH of 7.0 (containing 0.002 M MgCl2). […]
A 0.5 ml sample of each washed cell suspension (2 mg cells) was put into 10 ml vials at 4° C. which were sealed with a rubber cap. […] Samples of product (3 μl) were withdrawn periodically with a microsyringe and the products were analyzed by gas chromatography (ionization flame detector column). […]

The target in test [2] is T1, cell fractions of Methylosinus sp. (CRL-15, NRRL B-11,202) (Methylosinus trichosporium, UniProt Q50541+Q9KX50+Q9KX51).
T1 sequence (Q9KX50 40-431): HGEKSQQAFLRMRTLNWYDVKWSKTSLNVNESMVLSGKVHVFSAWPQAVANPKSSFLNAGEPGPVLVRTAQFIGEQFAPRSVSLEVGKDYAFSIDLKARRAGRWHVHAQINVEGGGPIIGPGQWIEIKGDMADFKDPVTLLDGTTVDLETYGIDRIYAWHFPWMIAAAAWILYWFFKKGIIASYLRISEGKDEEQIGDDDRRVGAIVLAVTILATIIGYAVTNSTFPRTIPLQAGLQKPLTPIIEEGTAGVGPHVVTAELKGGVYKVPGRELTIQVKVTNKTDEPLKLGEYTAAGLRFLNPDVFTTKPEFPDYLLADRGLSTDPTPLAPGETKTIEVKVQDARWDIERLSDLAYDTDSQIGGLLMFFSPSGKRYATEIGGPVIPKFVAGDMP
T1 sequence (Q50541 1-252): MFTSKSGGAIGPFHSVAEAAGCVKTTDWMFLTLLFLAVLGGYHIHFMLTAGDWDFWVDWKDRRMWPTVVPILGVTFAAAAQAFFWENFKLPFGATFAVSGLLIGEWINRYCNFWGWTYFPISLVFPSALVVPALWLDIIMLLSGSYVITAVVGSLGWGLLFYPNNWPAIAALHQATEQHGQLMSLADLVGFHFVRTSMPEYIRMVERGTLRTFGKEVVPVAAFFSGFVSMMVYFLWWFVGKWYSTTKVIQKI
T1 sequence (Q9KX51 1-256): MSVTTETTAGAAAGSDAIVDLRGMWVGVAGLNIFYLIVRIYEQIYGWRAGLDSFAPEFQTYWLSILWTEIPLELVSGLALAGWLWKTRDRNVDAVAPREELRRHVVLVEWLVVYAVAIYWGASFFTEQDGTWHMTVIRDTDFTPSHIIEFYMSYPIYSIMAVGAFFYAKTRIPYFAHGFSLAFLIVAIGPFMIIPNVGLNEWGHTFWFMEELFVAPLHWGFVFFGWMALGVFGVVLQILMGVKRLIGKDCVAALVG
As to the kind of experiment: Oxidation by cell fractions P(40), P(80), S(80). It counts as biochemical. As to conditions: P(40) particulate fraction; alkene to epoxide, alkane to alcohol; 30° C. The method, then:
Cells were washed twice with 25 mM potassium phosphate buffer, pH 7.0 containing 5 mM MgCl2. Cells were suspended in the same buffer. The cell suspensions at 4° C. were disintegrated by a single passage through a French Pressure cell (15,000 lb./in.^2) and centrifuged at 5000×g. for 15 min. to remove unbroken bacteria. The supernatant solution (crude extract) was then centrifuged at 40,000×g. for 30 min., yielding particulate P(40) and soluble S(40) fractions. The S(40) fraction was subsequently centrifuged at 80,000×g. for 60 min., yielding particulate P(80) and soluble S(80) fractions. The particulate fractions [P(40) and P(80)] were suspended in 25 mM potassium phosphate buffer, pH 7.0, containing 5 mM MgCl2 and homogenized at 4° C.
The oxidation of methane and propylene by particulate [(P)40 and (P)80] fractions and soluble [S(80)] fraction was measured at 30° C. by estimating the production of methanol and propylene oxide, respectively. The reaction mixtures contained in […]: 150 mM potassium phosphate buffer, pH 7.0 containing 5 mM MgCl2 b, 0.6 ml; 10μ moles NADH, and cellular fraction.
Reaction mixtures were contained in 10 ml vials at 4° C. Vials were sealed with rubber caps. The gaseous phase in the vials was removed using vacuum and then was replaced with a gas mixture of methane or propylene and oxygen at a 1:1, v/v ratio. Oxidation of other gaseous n-alkanes and n-alkanes was examined as described above. For liquid substrates, 10 μl of substrate was used directly.
The products of epoxidation of n-alkenes and hydroxylation of n-alkanes were assayed by flame ionization gas chromatography using a stainless steel column (12'×1/8") packed with 10% Carbowax 20 M on 80/100 Chromosorb W and Porapak Q column. The column temperature was maintained isothermally at 120° C. The carrier gas flow rate was 30 ml/min. of helium. The various products were identified by retention time comparisons and co-chromatography with authentic standards.
Specific activities were expressed as μ moles of products formed per hour per mg. protein. Concentrations of protein in various fractions were determined by the method of Lowry et al., J. Biol. Chem., 193: 265-275 (1951).

For the compound `C=CCCC` [1-Pentene], the “epoxide product formation” value in test [1] is on record as “did not produce any detectable epoxide product”. In test [2], the “Rate of Product Formation” value was 0 μ moles/hr/mg of protein.

Regarding `C=CCCCC` [hexene-1], the “epoxide product formation” value in test [1] was “did not produce any detectable epoxide product”.
